Reference: US20090124572A1, “Iron-containing nutritional supplement” (priority 2007, published 2009)

Tests used:
Caco-2 cells = assay: In-solution treatment of Caco-2 cells, ferritin formation as index of iron uptake/bioavailability (Experiments 1 and 2); conditions: Experiment 1, 6-well plates, iron 20 μmol/L, AA 400 μmol/L, 20 hours
Method: Cell culture. Caco-2 cells were obtained from the American Type Culture Collection at passage 17 and used in experiments at passage 29-35. Cells were seeded at a density of 50,000 cells/cm^2 in collagen-treated 6-well or 24-well plates. The integrity of the monolayer was verified by optical microscopy. […] The cells were maintained in Dulbecco's Modified Eagle Medium (DMEM) plus 1% antibiotic/antimycotic solution, 25 mmol/L HEPES and 10% fetal bovine serum; the medium was changed every 2 days. Two days before the experiment, the growth medium was removed from each culture well, and the cell layer was washed and maintained with Minimum Essential Media (MEM) at pH 7.0. […] This enriched MEM contained less than 80 μg iron/L. Iron uptake experiments were conducted 13 days post-seeding.
Harvesting of Caco-2 cells for ferritin analysis. […] Ferritin concentration and total protein concentration were determined on an aliquot of the harvested cell suspension with a one-stage sandwich immunoradiometric assay and a colorimetric assay, respectively. […] Therefore, the ratio of ferritin/total protein expressed as ng ferritin/mg protein, was used as an index of the cellular iron uptake.
In-solution treatment. […] Cellular ferritin and total protein was then analyzed and compared among all treatments. […]

[1] = dissolved in water; cited from earlier work

Compound | ferritin formation in Caco-2 cells in the presence of ascorbic acid (Caco-2 cells) | pH of aqueous solution [1]
[Cl][Fe]([Cl])[Cl] [FeCl3, ferric chloride] | significantly lower | 
ferrous sulfate |  | about 2
